Laboratory results from patent US4672058A, “N[[5-(trifluoromethyl)-6-methoxy-1-naphthalenyl]-thioxomethyl]-N -methylglycinamides” (American Home Products Corporation, priority 1985, dated 1987).

How the values were obtained:
[1] = test system: aldose reductase; details: literature, in words; cited from earlier work
[2] = test system: accumulation of dulcitol; assay: Lowering of dulcitol accumulation in lens, sciatic nerve and diaphragm of galactosemic rats (in vivo); parameters: species or system rat (Sprague-Dawley, male); details: for % lowering dulcitol accumulation in vivo, D: diaphragm
Excerpt: Such experiments are exemplified hereinbelow after the listing of the following general comments pertaining to these experiments:
(a) Four or more groups of six male rats, 50-70 g, Sprague-Dawley strain, were used. The first group, the control group, was fed a mixture of laboratory chow (rodent Laboratory Chow, Purina) and glucose at 20% (w/w %) concentration. The untreated galactosemic group was fed a similar diet in which galactose is substituted for glucose. The third group was fed a diet prepared by mixing a given amount of the test compound with the galactose containing diet. The concentration of galactose in the diet of the treated groups was the same as that for the untreated galactosemic group.
(b) After four days, the animals were killed by decapitation. The eyeballs were removed and punctured with a razor blade; the freed lenses were rolled gently on filter paper and weighed. The sciatic nerves were dissected as completely as possible and weighed. Both tissues when frozen can be kept up to two weeks before being analyzed for dulcitol.
(c) The polyol determination was performed by a modification of the procedure of M. Kraml and L. Cosyns, Clin. Biochem., 2,373 (1969). Only two minor reagent changes were made: (a) The rinsing mixture was an aqueous 5% (w/v) trichloroacetic acid solution and (b) the stock solution was prepared by dissolving 25 mg of dulcitol in 100 ml of an aqueous trichloroacetic acid solution. [N.B.: For each experiment the average value found in the tissue from rats fed the glucose diet was subtracted from the individual values found in the corresponding tissue in galactose-fed rats to obtain the amount of polyol accumulated.] […] In the present case the procedure of Hayman and Kinoshita was modified in that the final chromatography step was omitted in the preparation of the enzyme from bovine lens.
The figures under L, N and D represent the percentage decrease of dulcitol accumulation in the tissues of the lens, sciatic nerve and diaphragm, respectively, for treated rats as compared to untreated rats.

O=C(O)CN1C(=O)c2cccc3cccc(c23)C1=O [1,3-Dioxo-1H-benz[de]isoquinoline-2(3H)-acetic acid]
inhibition of aldose reductase, as reported [1]: effective inhibitor of aldose reductase

COc1ccc2c(C(=S)N(C)CC(N)=O)cccc2c1C(F)(F)F [Compound 1, N-[[5-(trifluoromethyl)-6-methoxy-1-naphthalenyl]-thioxomethyl]-N-methylglycinamide]
% lowering dulcitol accumulation in vivo, D ([2]; 5 mg/kg/day in diet, 4 days): 66% | results compared with N-[[5-(trifluoromethyl)-6-methoxy-1-naphthalenyl]-thioxomethyl]-N-methylglycine (tolrestat) ([2]; dose of 5 mg/kg/day, in words): comparable results

COc1ccc2c(C(=S)N(C)CC(=O)N(C)C)cccc2c1C(F)(F)F [Compound 3, 2-[[[6-Methoxy-5-(trifluoromethyl)-1-naphthalenyl]thioxomethyl]methylamino]-N,N-dimethylacetamide]
% lowering dulcitol accumulation in vivo, D ([2]; 55 mg/kg/day in diet, 4 days): 85%

COC(=N)NC(=O)CN(C)C(=S)c1cccc2c(C(F)(F)F)c(OC)ccc12 [Compound 4, N-[[[[5-(Trifluoromethyl)-6-methoxy-1-naphthalenyl]thioxomethyl]methylamino]acetyl]carbamimidic Acid, Methyl Ester]
% lowering dulcitol accumulation in vivo, D ([2]; 26 mg/kg/day in diet, 4 days): 76% | % lowering dulcitol accumulation in vivo, L ([2]; lens, 26 mg/kg/day in diet, 4 days): 13%

COc1ccc2c(C(=S)N(C)CC(=O)NC(N)=O)cccc2c1C(F)(F)F [Compound 5, [[[5-(Trifluoromethyl)-6-methoxy-1-naphthalenyl]thioxomethyl](methylamino)acetyl]urea]
% lowering dulcitol accumulation in vivo, D ([2]; 23 mg/kg/day in diet, 4 days): 64%

COC(=O)NC(=O)CN(C)C(=S)c1cccc2c(C(F)(F)F)c(OC)ccc12 [Compound 6, [[[5-(Trifluoromethyl)-6-methoxy-1-naphthalenyl]thioxomethyl](methylamino)acetyl]carbamic acid, Methyl Ester]
% lowering dulcitol accumulation in vivo, D ([2]; 8.4 mg/kg/day in diet, 4 days): 69% | % lowering dulcitol accumulation in vivo, D ([2]; 26 mg/kg/day in diet, 4 days): 88%

COc1ccc2c(C(=S)N(C)CC(=O)N[C@H]3C(O)O[C@H](CO)[C@@H](O)[C@@H]3O)cccc2c1C(F)(F)F (stereo partly drawn) [Compound 7, 2-Deoxy-2-[[[[[6-methoxy-5-(trifluoromethyl)-1-naphthalenyl]thioxomethyl]methylamino]acetyl]amino]-D-glucose]
% lowering dulcitol accumulation in vivo, D ([2]; 161 mg/kg/day in diet, 4 days): 37%

O=C1NC(=O)[C@@]2(CCOc3ccc(F)cc32)N1 [sorbinil, (S)-6-Fluoro-2,3-dihydrospiro(4H-1-benzopyran-4,4'-imidazolidine)-2',5'-dione]
inhibition of aldose reductase, as reported [1]: aldose reductase inhibiting properties
